Measurements from ChEMBL document CHEMBL3588786, “Synthesis and Biological evaluation of novel 4β-[(5-substituted)-1,2,3,4-tetrazolyl] podophyllotoxins as anticancer compounds” (Bioorg Med Chem Lett, 2015).
Calls of active or inactive are those of the source. The rule behind the calls is not given here.

Assays:
[1] = target: Tubulin (Bos taurus) (UniProt Q6B856+Q862F3); experiment: Inhibition of bovine brain tubulin polymerization assessed as increase in fluorescence intensity at 5 uM relative to control
[2] = system: A549; experiment: Cytotoxicity against human A549 cells assessed as cell viability by SRB assay; format: functional, cell-based
[3] = system: HeLa; experiment: Cytotoxicity against human HeLa cells assessed as cell viability by SRB assay; format: functional, cell-based
[4] = system: A549; experiment: Induction of cell cycle arrest in human A549 cells assessed as accumulation at G1 phase at 5 uM after 24 hrs by flow cytometry; format: functional
[5] = system: SK-N-SH; experiment: Cytotoxicity against human SK-N-SH cells assessed as cell viability by SRB assay; format: functional, cell-based
[6] = system: A549; experiment: Induction of cell cycle arrest in human A549 cells assessed as accumulation at G2/M phase at 5 uM after 24 hrs by flow cytometry; format: functional
[7] = system: MCF7; experiment: Cytotoxicity against human MCF7 cells assessed as cell viability by SRB assay; format: functional, cell-based
[8] = system: A549; experiment: Induction of cell cycle arrest in human A549 cells assessed as accumulation at G0 phase at 5 uM after 24 hrs by flow cytometry; format: functional
[9] = system: A549; experiment: Induction of cell cycle arrest in human A549 cells assessed as accumulation at S phase at 5 uM after 24 hrs by flow cytometry; format: functional
[10] = system: A549; experiment: Antimitotic activity against human A549 cells at 5 uM after 12 hrs by flow cytometry; format: functional, cell-based

| Compound | inhibition [1] | IC50 [2] | IC50 [3] | Activity [4] | IC50 [5] | Activity [6] | IC50 [7] | Activity [8] | Activity [9] | Activity [10] |
| --- | --- | --- | --- | --- | --- | --- | --- | --- | --- | --- |
| COc1cc([C@@H]2c3cc4c(cc3[C@@H](n3nnnc3C(=O)OCc3ccccc3)[C@H]3COC(=O)[C@H]23)OCO4)cc(OC)c1OC | 57.5% | 2.48 µM | 4.01 µM | 17.77% | 4.58 µM | 65.34% | 4.85 µM | 10.28% | 6.61% |  |
| CCOC(=O)c1nnnn1[C@@H]1c2cc3c(cc2[C@@H](c2cc(OC)c(OC)c(OC)c2)[C@H]2C(=O)OC[C@@H]21)OCO3 | 99.2% | 2.4 µM | 4.76 µM | 16.44% | 3.61 µM | 65.6% | 7.47 µM | 12.44% | 5.52% |  |
| COc1cccc2c1C(=O)c1c(O)c3c(c(O)c1C2=O)C[C@@](O)(C(=O)CO)C[C@@H]3O[C@H]1C[C@H](N)[C@H](O)[C@H](C)O1 [DOXORUBICIN] |  | 6.13 µM | 10.8 µM |  | 7.36 µM |  | 12.3 µM |  |  |  |
| COc1cc([C@@H]2c3cc4c(cc3[C@H](O)[C@H]3COC(=O)[C@H]23)OCO4)cc(OC)c1OC [PODOFILOX] | 93.9% | 2.55 µM | 1.92 µM | 19.71% | 7.92 µM | 60.77% | 3.34 µM | 9.48% | 10.03% |  |
| COc1cc([C@@H]2c3cc4c(cc3[C@@H](n3nnnc3S(=O)(=O)c3ccc(C)cc3)[C@H]3COC(=O)[C@H]23)OCO4)cc(OC)c1O | 22.5% | 3.29 µM | 3.05 µM | 19.28% | 3.44 µM | 62.48% | 5.29 µM | 11% | 7.28% |  |
| COc1cc([C@@H]2c3cc4c(cc3[C@@H](n3nnnc3C(=O)c3ccccc3)[C@H]3COC(=O)[C@H]23)OCO4)cc(OC)c1OC | 72.5% | 4.29 µM | 4.76 µM | 13.88% | 4.68 µM | 69.37% | 6.89 µM | 11.01% | 5.73% |  |
| COc1cc([C@@H]2c3cc4c(cc3[C@@H](n3nnnc3C(=O)c3ccccc3)[C@H]3COC(=O)[C@H]23)OCO4)cc(OC)c1O | 11.5% | 2.71 µM | 3.61 µM | 19.89% | 3.49 µM | 63.93% | 7.02 µM | 9.66% | 6.49% | Active |
| COc1cc([C@@H]2c3cc4c(cc3[C@@H](n3nnnc3C(=O)OCc3ccccc3)[C@H]3COC(=O)[C@H]23)OCO4)cc(OC)c1O | 29.8% | 2.98 µM | 4.77 µM | 19.95% | 6.16 µM | 63.19% | 9.44 µM | 8.61% | 8.25% |  |
| COC(=O)c1nnnn1[C@@H]1c2cc3c(cc2[C@@H](c2cc(OC)c(O)c(OC)c2)[C@H]2C(=O)OC[C@@H]21)OCO3 | 28.3% | 2.44 µM | 3.95 µM | 15.18% | 5.64 µM | 68.48% | 5.27 µM | 9.96% | 6.38% |  |
| COC(=O)Nc1nc2ccc(C(=O)c3cccs3)cc2n1C | 65.3% |  |  |  |  |  |  |  |  |  |
| CCOC(=O)c1nnnn1[C@@H]1c2cc3c(cc2[C@@H](c2cc(OC)c(O)c(OC)c2)[C@H]2C(=O)OC[C@@H]21)OCO3 | 2.68% | 6.49 µM | 29.1 µM | 11.83% | 25.9 µM | 74.86% | 12.4 µM | 7.3% | 6% | Active |
| CC(=O)O[C@H]1C(=O)[C@@]2(C)[C@H]([C@H](OC(=O)c3ccccc3)[C@]3(O)C[C@H](OC(=O)[C@H](O)[C@@H](NC(=O)c4ccccc4)c4ccccc4)C(C)=C1C3(C)C)[C@]1(OC(C)=O)CO[C@@H]1C[C@@H]2O [PACLITAXEL] |  |  |  | 13.7% |  | 70.48% |  | 9.81% | 6.01% |  |
| COC(=O)c1nnnn1[C@@H]1c2cc3c(cc2[C@@H](c2cc(OC)c(OC)c(OC)c2)[C@H]2C(=O)OC[C@@H]21)OCO3 | 12.4% | 3.11 µM | 5.25 µM | 30.01% | 6.5 µM | 45.43% | 6.97 µM | 19.92% | 4.61% | Active |
| COc1cc([C@@H]2c3cc4c(cc3[C@@H](n3nnnc3S(=O)(=O)c3ccc(C)cc3)[C@H]3COC(=O)[C@H]23)OCO4)cc(OC)c1OC | 0.73% | 2.89 µM | 3.15 µM | 20.09% | 5.31 µM | 54.73% | 6.99 µM | 19.96% | 5.22% | Active |
